ChEMBL document CHEMBL1135524, “2-Ethyl and 2-ethylidene analogues of 1alpha,25-dihydroxy-19-norvitamin D(3): synthesis, conformational analysis, biological activities, and docking to the modeled rVDR ligand binding domain” (2002)
“And” between values parts separate entries of the source, which are not always exact repeats. Equal values may be shown once.

Key:
[1] = tested on: HL-60; assay: Ratio of average ED50 to 1-alpha,25-(OH)2D3 ED50 for differentiation assay; type: functional, Homo sapiens
[2] = tested on: HL-60; assay: Ability to induce differentiation of human promyelocyte HL-60 cells into monocytes.; type: functional; conditions: read-out: ED50 (the source's name)
[3] = species: Rattus norvegicus; assay: Intestinal calcium transport at dose 260 (pmol); type: functional
[4] = species: Rattus norvegicus; assay: Intestinal calcium transport at dose 130 (pmol); type: functional
[5] = species: Rattus norvegicus; assay: (§1) Bone calcium mobilization in rats maintained on a very low calcium diet at a dose 130 (pmol); type: functional, organism-based
[6] = species: Rattus norvegicus; assay: Bone calcium mobilization in rats maintained on a very low calcium diet at a dose 260 (pmol); type: functional, organism-based
[7] = biological target: T1, Vitamin D3 receptor (Sus scrofa) (UniProt A3RGC1); assay: Binding affinity for porcine intestinal Vitamin D3 receptor (VDR)
T1 sequence (whole entry): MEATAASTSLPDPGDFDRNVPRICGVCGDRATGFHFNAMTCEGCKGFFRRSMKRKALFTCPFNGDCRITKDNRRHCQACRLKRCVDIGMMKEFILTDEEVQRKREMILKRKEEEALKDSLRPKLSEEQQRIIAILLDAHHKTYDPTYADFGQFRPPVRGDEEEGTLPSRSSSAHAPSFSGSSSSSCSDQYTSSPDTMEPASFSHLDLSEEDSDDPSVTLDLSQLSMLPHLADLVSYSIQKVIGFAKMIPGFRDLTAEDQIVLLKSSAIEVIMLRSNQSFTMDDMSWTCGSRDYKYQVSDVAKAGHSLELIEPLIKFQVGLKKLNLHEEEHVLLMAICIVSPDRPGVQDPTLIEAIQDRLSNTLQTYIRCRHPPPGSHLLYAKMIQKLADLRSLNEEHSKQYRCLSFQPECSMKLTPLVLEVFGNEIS

[8] = species: Rattus norvegicus; assay: as §1; type: functional, organism-based; remark: listed apart in the source

Row | Compound | Activity ratio [1] | EC50 [2] [nM] | Ca2+ transport [3] | Ca2+ transport [4] | Serum Ca2+ [6] | other results
1 | CCC1[C@H](O)CC(=C/C=C2\CCC[C@]3(C)[C@@H]([C@@H](C)CCCC(C)(C)O)CC[C@@H]23)C[C@H]1O (some centres undefined) [listing 1 of 3 here] | 2.3 | 6.3 | 4.1 |  |  | 
2 | CCC1[C@H](O)CC(=C/C=C2\CCC[C@]3(C)[C@@H]([C@H](C)CCCC(C)(C)O)CC[C@@H]23)C[C@H]1O (some centres undefined) [listing 1 of 3 here] | 0.17 | 0.46 | 4 |  |  | 
3 | CC=C1[C@H](O)CC(=C/C=C2\CCC[C@]3(C)[C@@H]([C@H](C)CCCC(C)(C)O)CC[C@@H]23)C[C@H]1O [listing 1 of 3 here] | 1.6 | 4 | 4.4 | 5.7 |  | 
4 | CC=C1[C@H](O)CC(=C/C=C2\CCC[C@]3(C)[C@@H]([C@H](C)CCCC(C)(C)O)CC[C@@H]23)C[C@H]1O [listing 2 of 3 here] |  |  |  |  | 4.5 and 4.4 | Serum Ca2+ [5]: 5.2 and 4.2
5 | CCC1[C@H](O)CC(=C/C=C2\CCC[C@]3(C)[C@@H]([C@H](C)CCCC(C)(C)O)CC[C@@H]23)C[C@H]1O (some centres undefined) [listing 2 of 3 here] |  |  |  |  | 5 and 5.1 | 
6 | CC=C1[C@H](O)CC(=C/C=C2\CCC[C@]3(C)[C@@H]([C@@H](C)CCCC(C)(C)O)CC[C@@H]23)C[C@H]1O [listing 1 of 3 here] |  |  |  |  | 8.2 and 4.4 | Serum Ca2+ [5]: 12.1 and 5.1; ED50 [7]: 0.28 nM and 0.5 nM
7 | CCC1[C@H](O)CC(=C/C=C2\CCC[C@]3(C)[C@@H]([C@@H](C)CCCC(C)(C)O)CC[C@@H]23)C[C@H]1O (some centres undefined) [listing 2 of 3 here] | 0.05 | 0.13 |  |  |  | 
8 | CC=C1[C@H](O)CC(=C/C=C2\CCC[C@]3(C)[C@@H]([C@@H](C)CCCC(C)(C)O)CC[C@@H]23)C[C@H]1O [listing 2 of 3 here] | 0.09 |  | 9 | 5.8 |  | EC50 ([2]; Homo sapiens, HL-60): 0.22 nM
9 | CCC1[C@H](O)CC(=C/C=C2\CCC[C@]3(C)[C@@H]([C@H](C)CCCC(C)(C)O)CC[C@@H]23)C[C@H]1O (some centres undefined) [listing 3 of 3 here] | 4.4 | 12 | 3.7 |  |  | 
10 | CC=C1[C@H](O)CC(=C/C=C2\CCC[C@]3(C)[C@@H]([C@@H](C)CCCC(C)(C)O)CC[C@@H]23)C[C@H]1O [listing 3 of 3 here] | 0.06 | 0.15 | 6.6 | 6.7 |  | 
11 | CCC1[C@H](O)CC(=C/C=C2\CCC[C@]3(C)[C@@H]([C@@H](C)CCCC(C)(C)O)CC[C@@H]23)C[C@H]1O (some centres undefined) [listing 3 of 3 here] |  |  |  |  | 5.6 | 
12 | CC=C1[C@H](O)CC(=C/C=C2\CCC[C@]3(C)[C@@H]([C@H](C)CCCC(C)(C)O)CC[C@@H]23)C[C@H]1O [listing 3 of 3 here] | 0.8 |  | 5 | 6.8 |  | EC50 ([2]; Homo sapiens, HL-60): 2 nM
13 | C=C1/C(=C\C=C2/CCC[C@]3(C)[C@@H]([C@H](C)CCCC(C)(C)O)CC[C@@H]23)C[C@@H](O)C[C@@H]1O [CALCITRIOL] |  |  | 6.5 and 5.9 and 6 | 5.5 and 4.9 and 5.2 | 5.8 (2×) and 6.4 (2×) | Serum Ca2+ [8]: 5.2 and 5.7; Serum Ca2+ [5]: 5.1
